According to patent US7807678B2, “Peptidomimetics of biologically active metallopeptides” (Palatin Technologies, Inc., priority 2001, dated 2010):
Like-named read-outs stand apart in the source and are kept apart here. Non-standard residues stand in square brackets, D forms with d. Residues, ends and D or L forms follow the SMILES beside them. *: point of attachment. Hyp = O=C(O)[CH]1C[CH](O)CN1; Nle = CCCC[CH](N)C(=O)O; NH(CH2)3NH2 = NCCCN*; Bn = c1ccc(C*)cc1

What was measured:
[1] = target: T1, MC1-R (B-16 mouse melanoma cells) (Mus musculus, UniProt Q01727); experiment: cAMP assay for agonist/antagonist status, MC1-R; type: cell-based
T1 construct: B-16 mouse melanoma cells (containing MC1-R); endogenous in cells; host or cells: B-16 mouse melanoma cells
Procedure: (§1) The Ki (nM) of certain peptidomimetics were determined, as was the agonist/antagonist status with respect to MC4-R, Functional evaluation of compounds at melanocortin receptors was performed by measuring the accumulation of intracellular cAMP in HEK-293 cells expressing MC3-R, MC4-R or MC5-R, and in B-16 mouse melanoma cells (containing MC1-R). Antagonistic activity was determined by measuring the inhibition of α-MSH-induced cAMP levels following exposure to the compounds. Cells, suspended in Earle's Balanced Salt Solution containing 10 mM HEPES, pH 7.5, 5 mM MgCl2, 1 mM glutamine, 0.1% albumin and 0.6 mM 3-isobutyl-1-methyl-xanthine, a phosphodiesterase inhibitor, were plated in 96 well plates at a density of 0.5×10^5 cells per well. Cells were incubated with the test compounds in the presence or absence of α-MSH for 1 hour at 37° C. cAMP levels were measured by EIA (Amersham) in the cell lysates. Data analysis and EC50 values were determined using nonlinear regression analysis with Prism Graph-Pad software.

MC4-R [2] = target: T2, MC4-R (Homo sapiens, UniProt P32245); experiment: Competitive inhibition binding assay, 125I-NDP-α-MSH, MC4-R; parameters: expressed in transfected cells; settings: for Inhibition at 1 μM MC4-R: 1 μM compound, inhibition of 125I-NDP-α-MSH binding, mean of triplicates, results less than 0% reported as 0%
Summary of the method: (§2)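 Membranes from hMC3-R, hMC4-R or hMC5-R cells, or B-16 mouse melanoma cells (MC1-R), were incubated 90 min at room temperature with 0.4 nM 125I-NDP-α-MSH in HEPES pH 7.2 with Mg2+/Ca2+/K+, and test compound generally at 1 μM. Filter-bound radioactivity was gamma counted. Specific binding was defined with 1 μM α-MSH; triplicate means.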

MC5-R [3] = target: T3, MC5-R (Homo sapiens, UniProt P33032); experiment: Ki determination by the method of Example 4, MC5-R; type: binding; parameters: expressed in transfected cells; host or cells: HEK-293
Procedure: as §1

MC3-R [4] = target: T4, MC3-R (Homo sapiens, UniProt P41968); experiment: Ki determination by the method of Example 4, MC3-R; type: binding; parameters: expressed in transfected cells; host or cells: HEK-293
Procedure: as §1

MC5-R [5] = target: T3, MC5-R; experiment: Competitive inhibition binding assay, 125I-NDP-α-MSH, MC5-R; parameters: expressed in transfected cells; settings: for Inhibition at 1 μM MC5-R: 1 μM compound, inhibition of 125I-NDP-α-MSH binding, mean of triplicates, results less than 0% reported as 0%
Summary of the method: as §2

MC4-R (HEK-293 cells) = target: T5, MC4-R (HEK-293 cells) (Homo sapiens, UniProt P32245); experiment: cAMP assay for agonist/antagonist status, MC4-R; type: cell-based
T5 construct: expressed in transfected cells; host or cells: HEK-293
Procedure: as §1

MC3-R [6] = target: T4, MC3-R; experiment: Competitive inhibition binding assay, 125I-NDP-α-MSH, MC3-R; parameters: expressed in transfected cells; settings: for Inhibition at 1 μM MC3-R: 1 μM compound, inhibition of 125I-NDP-α-MSH binding, mean of triplicates, results less than 0% reported as 0%
Summary of the method: as §2

[7] = target: T1, MC1-R (B-16 mouse melanoma cells); experiment: Competitive inhibition binding assay, 125I-NDP-α-MSH, MC1-R; settings: 1 μM compound; inhibition of 125I-NDP-α-MSH binding; mean of triplicates; results less than 0% reported as 0%
Summary of the method: as §2

MC4-R [8] = target: T2, MC4-R; experiment: Ki determination by the method of Example 4, MC4-R; type: binding; parameters: expressed in transfected cells; host or cells: HEK-293
Procedure: as §1

[9] = target: T1, MC1-R (B-16 mouse melanoma cells); experiment: Ki determination by the method of Example 4, MC1-R; type: binding
Procedure: as §1

MC5-R (HEK-293 cells) = target: T6, MC5-R (HEK-293 cells) (Homo sapiens, UniProt P33032); experiment: cAMP assay for agonist/antagonist status, MC5-R; type: cell-based
T6 construct: expressed in transfected cells; host or cells: HEK-293
Procedure: as §1

[10] = bound in μM, read-out: Ki MC3-R
[11] = bound in μM, read-out: Ki MC1-R
[12] = bound in μM, read-out: Ki MC5-R
[13] = bound in μM, read-out: Ki MC4-R

T5 sequence (P32245 whole entry): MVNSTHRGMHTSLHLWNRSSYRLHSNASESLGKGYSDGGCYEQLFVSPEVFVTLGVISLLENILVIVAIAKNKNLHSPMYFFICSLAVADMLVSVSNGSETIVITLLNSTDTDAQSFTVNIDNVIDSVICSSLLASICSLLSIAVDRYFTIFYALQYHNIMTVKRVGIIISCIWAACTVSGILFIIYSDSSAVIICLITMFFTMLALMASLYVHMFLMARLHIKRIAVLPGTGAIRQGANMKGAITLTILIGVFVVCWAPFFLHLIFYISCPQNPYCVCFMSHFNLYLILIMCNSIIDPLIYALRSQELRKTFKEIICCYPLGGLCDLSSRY
T2 sequence (P32245 whole entry): as above
T4 sequence (P41968 whole entry): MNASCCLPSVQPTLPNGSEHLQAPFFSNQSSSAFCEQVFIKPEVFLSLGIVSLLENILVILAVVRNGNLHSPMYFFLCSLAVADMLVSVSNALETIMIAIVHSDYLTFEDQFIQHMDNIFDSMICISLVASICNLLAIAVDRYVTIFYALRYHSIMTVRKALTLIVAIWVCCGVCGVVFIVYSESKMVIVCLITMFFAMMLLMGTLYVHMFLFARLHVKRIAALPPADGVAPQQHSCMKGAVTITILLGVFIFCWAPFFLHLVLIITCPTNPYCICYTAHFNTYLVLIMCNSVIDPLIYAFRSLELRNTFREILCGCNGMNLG
T1 sequence (Q01727 whole entry): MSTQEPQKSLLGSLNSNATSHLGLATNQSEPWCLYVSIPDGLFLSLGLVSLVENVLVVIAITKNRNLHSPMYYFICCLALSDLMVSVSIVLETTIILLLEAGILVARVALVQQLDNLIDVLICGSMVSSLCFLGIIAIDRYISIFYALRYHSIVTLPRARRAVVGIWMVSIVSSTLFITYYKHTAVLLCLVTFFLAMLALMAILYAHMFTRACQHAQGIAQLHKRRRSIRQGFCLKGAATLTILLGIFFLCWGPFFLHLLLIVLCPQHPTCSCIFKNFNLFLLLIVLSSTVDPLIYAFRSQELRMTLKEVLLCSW
T3 sequence (P33032 whole entry): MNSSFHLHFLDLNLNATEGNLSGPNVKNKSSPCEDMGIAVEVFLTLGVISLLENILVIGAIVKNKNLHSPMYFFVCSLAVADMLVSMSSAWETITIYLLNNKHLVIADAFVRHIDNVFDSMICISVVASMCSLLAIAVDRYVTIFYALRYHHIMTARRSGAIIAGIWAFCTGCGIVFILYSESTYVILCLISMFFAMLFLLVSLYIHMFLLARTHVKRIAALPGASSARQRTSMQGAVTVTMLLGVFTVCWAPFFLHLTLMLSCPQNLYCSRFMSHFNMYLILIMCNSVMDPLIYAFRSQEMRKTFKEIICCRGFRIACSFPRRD
T6 sequence (P33032 whole entry): as above

agonist/antagonist status as to MC1-R [1]	Inhibition at 1 μM MC4-R (MC4-R [2])	Inhibition at 1 μM MC5-R (MC5-R [5])	agonist/antagonist status as to MC4-R (MC4-R (HEK-293 cells))	Inhibition at 1 μM MC3-R (MC3-R [6])	Inhibition at 1 μM MC1-R [7]	agonist/antagonist status as to MC5-R (MC5-R (HEK-293 cells))	Ki (MC3-R [4]; [10])	Ki [9, 11]	Ki (MC5-R [3]; [12])	Ki (MC4-R [8]; [13])	Structure (SMILES)	further results
inactive	100%	96%	antagonist	88%	75%	antagonist					N=C(N)NCCC[C@H]1C(=O)N2C(CC[C@@H]2COc2ccc3ccccc3c2)N1C(=O)[C@@H](Cc1ccc(Cl)cc1Cl)NC(=O)[C@@H]1Cc2ccccc2CN1 (some centres unmarked) [Example 112]	Ki (MC5-R [3]; read-out: Ki (nM) MC5-R): 26 nM; Ki (MC3-R [4]; read-out: Ki (nM) MC3-R): 42 nM; Ki (MC4-R [8]; read-out: Ki (nM) MC4-R): 1 nM; Ki ([9]; read-out: Ki (nM) MC1-R): 111 nM
							> 1000 nM	> 1000 nM		> 1000 nM	NCCCNC(=O)C1CC(OCc2ccccc2)CN1C(=O)C(Cc1ccc(Cl)cc1)NC(=O)C1Cc2ccccc2CN1 (centres unmarked) [Example 145]	
							> 1000 nM	> 1000 nM	> 1000 nM	> 1000 nM	NCCCNC(=O)[C@@H]1C[C@@H](OCc2ccccc2)CN1C(=O)[C@@H](Cc1ccc(Cl)cc1)NC(=O)[C@H]1Cc2ccccc2CN1 [Example 146]	

Further lines, the molecule ahead of its results:

Structure (SMILES)	agonist/antagonist status as to MC1-R [1]	Inhibition at 1 μM MC4-R (MC4-R [2])	Inhibition at 1 μM MC5-R (MC5-R [5])	agonist/antagonist status as to MC4-R (MC4-R (HEK-293 cells))	Inhibition at 1 μM MC3-R (MC3-R [6])	Inhibition at 1 μM MC1-R [7]	agonist/antagonist status as to MC5-R (MC5-R (HEK-293 cells))	Ki (MC3-R [4]; [10])	Ki [9, 11]	Ki (MC5-R [3]; [12])	Ki (MC4-R [8]; [13])	further results
N=C(N)NCCC[C@H]1C(=O)N2C(CC[C@@H]2COc2ccc3ccccc3c2)N1C(=O)[C@@H](Cc1ccc(Cl)cc1Cl)NC(=O)[C@@H]1C[C@@H](OCc2ccccc2)CN1 (some centres unmarked) [Example 113]	agonist	100%	100%	antagonist	84%	53%	agonist					
N=C(N)NCCC[C@H]1C(=O)N2C(CC[C@@H]2COc2ccc3ccccc3c2)N1C(=O)[C@@H](Cc1ccc(Cl)cc1Cl)NC(=O)[C@@H](N)COCc1ccccc1 (some centres unmarked) [Example 114]	agonist	100%	94%	agonist	77%	53%	agonist					
N=C(N)NCCC[C@H]1C(=O)N2C(CC[C@@H]2COc2ccc3ccccc3c2)N1C(=O)[C@@H](Cc1ccc(Cl)cc1Cl)NC(=O)[C@@H]1CC[C@H](c2ccccc2)N1 (some centres unmarked) [Example 115]								> 1000 nM	> 1000 nM			inhibition at 1 µM (MC4-R [2]): 97%; Ki (MC5-R [3]; read-out: Ki (nM) MC5-R): 99 nM; inhibition at 1 µM (MC5-R [5]): 86%; inhibition at 1 µM (MC3-R [6]): 43%; Ki (MC4-R [8]; read-out: Ki (nM) MC4-R): 12 nM
CCCCC(N)C(=O)NC(C)C(=O)NC(Cc1cnc[nH]1)C(=O)NC(Cc1ccccc1)C(=O)N1CC(OCc2ccccc2)CC1C(=O)NCCCN (centres unmarked) [Example 134] (H-[Nle]AHF[Hyp](Bn)-{NH(CH2)3NH2}; configuration not given here)								> 1000 nM		> 1000 nM	> 1000 nM	
NCCCNC(=O)C1CC(OCc2ccccc2)CN1C(=O)C(Cc1ccccc1)NC(=O)C1Cc2ccccc2CN1 (centres unmarked) [Example 147]								> 1000 nM	> 1000 nM	> 1000 nM	> 1000 nM	
NCCCNC(=O)[C@@H]1C[C@@H](OCc2ccccc2)CN1C(=O)[C@@H](Cc1ccccc1)NC(=O)[C@H]1Cc2ccccc2CN1 [Example 148]								> 1000 nM	> 1000 nM	> 1000 nM	> 1000 nM	
[2H]N[C@@H](Cc1cnc[nH]1)C(=O)N[C@@H](Cc1ccccc1)C(=O)N1C2CC[C@H](COc3ccc4ccccc4c3)N2C(=O)[C@@H]1CCCCN (some centres unmarked) [Example 180]	agonist							> 1000 nM		> 1000 nM	> 1000 nM	agonist/antagonist status as to MC1-R ([1]; listed as Compound 2): potent MCR-1 agonist; Ki ([9]; read-out: Ki (nM) MC1-R): 8 nM
